Reference: the supplement of paper PMC10307832

Columns and labels:
Experiment in all cases: relative viability (nuclei count vs DMSO), 5 days (fraction); higher = more cells survive
[1] = compound: CN1CCN(c2ccc3nc(-c4c(N)c5c(F)cccc5[nH]c4=O)[nH]c3c2)CC1 [Dovitinib] + COc1cccc2cc(-c3nc([C@H]4CC[C@H](C(=O)O)CC4)n4ncnc(N)c34)[nH]c12 [OSI-027] (partner 0.5 µM)
In short: (§1)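 Values are medians from duplicate plates. Each reflects relative viability, defined as the nuclei count of treated wells over that of vehicle wells. Lung cancer cell lines in 1536-well plates were pin-tool dosed one day after seeding with one drug alone or with a fixed anchor-drug dose plus five library-drug doses (not always all listed) in √10 steps, then fixed, stained and imaged at 4× after 5 days.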

[2] = compound: CN1CCN(c2ccc3nc(-c4c(N)c5c(F)cccc5[nH]c4=O)[nH]c3c2)CC1 [Dovitinib] + Cc1cc(Nc2cc(N3CCN(C)CC3)nc(Sc3ccc(NC(=O)C4CC4)cc3)n2)n[nH]1 [Tozasertib] (partner 0.1 µM)
In short: as §1

[3] = compound: CN1CCN(c2ccc3nc(-c4c(N)c5c(F)cccc5[nH]c4=O)[nH]c3c2)CC1 [Dovitinib] + C[C@@H](Oc1cc(-c2cnn(C3CCNCC3)c2)cnc1N)c1c(Cl)ccc(F)c1Cl [Crizotinib] (partner 1 µM)
In short: as §1

[4] = compound: CN1CCN(c2ccc3nc(-c4c(N)c5c(F)cccc5[nH]c4=O)[nH]c3c2)CC1 [Dovitinib] + C[C@]1(O)C[C@@H](c2nc(-c3ccc4ccc(-c5ccccc5)nc4c3)c3c(N)nccn32)C1 [Linsitinib] (partner 1 µM)
In short: as §1

| Cell Line | relative viability ([1]; first compound 0.02 µM) | relative viability ([1]; first compound 0.06325 µM) | relative viability ([1]; first compound 0.2 µM) | relative viability ([1]; first compound 0.6325 µM) | relative viability ([1]; first compound 2 µM) | relative viability ([2]; first compound 0.02 µM) | relative viability ([2]; first compound 0.06325 µM) | relative viability ([2]; first compound 0.2 µM) | relative viability ([2]; first compound 0.6325 µM) | relative viability ([2]; first compound 2 µM) | relative viability ([3]; first compound 0.02 µM) | relative viability ([3]; first compound 0.06325 µM) | relative viability ([3]; first compound 0.2 µM) | relative viability ([3]; first compound 0.6325 µM) | relative viability ([3]; first compound 2 µM) | relative viability ([4]; first compound 0.02 µM) | relative viability ([4]; first compound 0.06325 µM) | relative viability ([4]; first compound 0.2 µM) | relative viability ([4]; first compound 0.6325 µM) | relative viability ([4]; first compound 2 µM) |
| --- | --- | --- | --- | --- | --- | --- | --- | --- | --- | --- | --- | --- | --- | --- | --- | --- | --- | --- | --- | --- |
| NCI-H2087 | 0.57 | 0.487 | 0.757 | 0.484 | 0.554 | 0.196 | 0.271 | 0.308 | 0.209 | 0.286 | 0.817 | 0.66 | 0.878 | 0.796 | 0.778 | 0.953 | 0.943 | 1.09 | 1 | 0.825 |
| LU99A | 0.257 | 0.283 | 0.327 | 0.3 | 0.316 | 0.222 | 0.226 | 0.272 | 0.239 | 0.251 | 0.548 | 0.597 | 0.601 | 0.561 | 0.547 | 0.482 | 0.571 | 0.521 | 0.515 | 0.506 |
| NCI-H1355 | 0.443 | 0.386 | 0.392 | 0.48 | 0.388 | 0.567 | 0.566 | 0.618 | 0.54 | 0.596 | 1.06 | 1.02 | 1.06 | 1.09 | 1.06 | 0.821 | 0.886 | 0.856 | 0.801 | 0.812 |
| NCI-H520 | 0.279 | 0.248 | 0.334 | 0.244 | 0.23 | 0.453 | 0.486 | 0.409 | 0.431 | 0.427 | 0.746 | 0.724 | 0.782 | 0.781 | 0.798 | 0.832 | 0.964 | 0.986 | 0.868 | 1.07 |
| NCI-H661 | 0.689 | 0.706 | 0.753 | 0.732 | 0.729 | 0.347 | 0.355 | 0.36 | 0.361 | 0.38 | 0.915 | 0.863 | 0.928 | 0.942 | 0.891 | 0.537 | 0.547 | 0.618 | 0.613 | 0.654 |
| NCI-H650 | 0.503 | 0.515 | 0.538 | 0.521 | 0.565 | 0.713 | 0.689 | 0.725 | 0.824 | 0.854 | 0.771 | 0.638 | 0.563 | 0.645 | 0.789 | 0.953 | 0.675 | 0.839 | 0.95 | 1.01 |
| NCI-H647 | 0.608 | 0.758 | 0.817 | 0.657 | 0.802 | 0.297 | 0.317 | 0.452 | 0.279 | 0.315 | 1.03 | 1.14 | 1.24 | 1.01 | 1.1 | 1.1 | 1.15 | 1.16 | 1.06 | 1.27 |
| 201T | 0.704 | 0.747 | 0.748 | 0.898 | 0.724 | 0.917 | 0.967 | 0.975 | 0.946 | 0.873 | 1.03 | 0.935 |  | 0.992 | 1.01 | 0.988 | 0.944 |  | 0.945 | 0.995 |
| NCI-H838 | 0.324 | 0.41 | 0.385 | 0.37 | 0.471 | 0.236 | 0.263 | 0.282 | 0.295 | 0.252 | 0.788 | 0.817 | 0.818 | 0.816 | 0.785 | 0.97 | 1.05 | 0.999 | 1.01 | 0.977 |
| SW 1573 | 0.715 | 0.641 | 0.676 | 0.455 | 0.725 | 0.183 | 0.175 | 0.163 | 0.144 | 0.164 | 0.773 | 0.809 | 0.805 | 0.749 | 0.804 | 0.798 | 0.795 | 0.749 | 0.766 | 0.864 |
| PC-14 | 0.827 | 0.804 | 1.02 | 0.751 | 0.933 | 0.542 | 0.649 | 0.684 | 0.644 | 0.643 | 0.815 | 0.906 | 0.865 | 0.862 | 0.893 | 1.03 | 0.954 | 0.969 | 0.996 | 0.928 |
| LK-2 | 0.187 | 0.192 | 0.202 | 0.252 | 0.173 | 0.175 | 0.182 | 0.182 | 0.181 | 0.149 | 0.216 | 0.215 | 0.275 | 0.223 | 0.281 | 0.688 | 0.604 | 0.484 | 0.608 | 0.565 |
| COR-L23 | 0.681 | 0.856 | 0.835 | 0.791 | 0.823 | 0.207 | 0.191 | 0.194 | 0.172 | 0.215 | 0.655 | 0.526 | 0.638 | 0.55 | 0.756 | 0.876 | 1.05 | 0.943 | 0.896 | 1.04 |
| NCI-H1650 | 0.687 | 0.619 | 0.621 | 0.711 | 0.768 | 0.394 | 0.349 | 0.424 | 0.325 | 0.361 | 0.945 | 1.02 | 1.06 | 1.14 | 1.02 |  |  |  |  |  |
| NCI-H2170 | 0.572 | 0.711 | 0.718 | 0.708 | 0.723 | 0.658 | 0.856 | 0.733 | 0.787 | 0.787 | 1.12 | 1.23 | 1.23 | 1.14 | 1.2 |  |  |  |  |  |
| NCI-H1563 | 0.825 | 0.797 | 0.827 | 0.758 | 0.785 |  |  |  |  |  | 0.829 | 0.855 | 0.839 | 0.838 | 0.814 | 1.28 | 1.17 | 1.14 | 1.21 | 1.2 |
| EBC-1 |  |  |  |  |  |  |  |  |  |  | 0.177 | 0.212 | 0.193 | 0.162 | 0.208 | 0.855 | 0.861 | 0.85 | 0.884 | 0.912 |
| Calu-6 |  |  |  |  |  |  |  |  |  |  | 0.674 | 0.827 | 0.665 | 0.847 | 0.779 | 0.947 | 0.955 | 0.935 | 0.93 | 0.887 |
